Data reported in US8933232B2, “1,3,4-oxadiazole and 1,3,4-thiadiazole beta-lactamase inhibitors” (priority 2012, dated 2015).
Counter-ions that a name gives are not always drawn.

Tested on: bacterial strains that express KPC β-lactamases
Assay: Synergy MIC / standard BLI potentiation MIC assay against strains expressing KPC β-lactamases
Type: cell-based
Conditions: in the presence of a β-lactam; comparator Avibactam
Procedure, shortened: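 Broth microdilution per modified CLSI M07-A9 in CAMHB, ~10^5 CFU/mL, 18-20 h at 37 °C with aeration; engineered E. coli carrying cloned β-lactamase plasmids kept in 25 μg/mL tetracycline. β-Lactam MIC read with BLI fixed at 4 μg/mL, or BLI serially diluted against fixed β-lactam; MIC = lowest concentration without visible turbidity.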

SMILES	more active than Avibactam for at least one bacterial strain that expresses KPC β-lactamase and/or better spectrum of activity against KPC strains
N=C(N)NCC1(c2nnc([C@@H]3CC[C@@H]4CN3C(=O)N4OS(=O)(=O)O)o2)CC1 [Compound 723, (2S,5R)-2-(5-(1-(guanidinomethyl)cyclopropyl)-1,3,4-oxadiazol-2-yl)-7-oxo-1,6-diazabicyclo[3.2.1]octan-6-yl hydrogen sulfate]	more active than Avibactam
N[C@H]1C[C@H](c2nnc([C@@H]3CC[C@@H]4CN3C(=O)N4OS(=O)(=O)O)s2)C1 [Compound 783, (2S,5R)-2-(5-((1r,3S)-3-aminocyclobutyl)-1,3,4-thiadiazol-2-yl)-7-oxo-1,6-diazabicyclo[3.2.1]octan-6-yl hydrogen sulfate]	more active than Avibactam
N[C@H]1C[C@H](c2nnc([C@@H]3CC[C@@H]4CN3C(=O)N4OS(=O)(=O)O)o2)C1 [Compound 727, (2S,5R)-2-(5-((1r,3S)-3-aminocyclobutyl)-1,3,4-oxadiazol-2-yl)-7-oxo-1,6-diazabicyclo[3.2.1]octan-6-yl hydrogen sulfate]	more active than Avibactam
N=C(N)NCc1nnc([C@@H]2CC[C@@H]3CN2C(=O)N3OS(=O)(=O)O)s1 [Compound 721, (2S,5R)-2-(5-(guanidinomethyl)-1,3,4-thiadiazol-2-yl)-7-oxo-1,6-diazabicyclo[3.2.1]octan-6-yl hydrogen sulfate]	more active than Avibactam
N[C@H]1C[C@@H](Cc2nnc([C@@H]3CC[C@@H]4CN3C(=O)N4OS(=O)(=O)O)o2)C1 [Compound 728, (2S,5R)-2-(5-(((1s,3R)-3-aminocyclobutyl)methyl)-1,3,4-oxadiazol-2-yl)-7-oxo-1,6-diazabicyclo[3.2.1]octan-6-yl hydrogen sulfate]	more active than Avibactam
O=C1N2C[C@@H](CC[C@H]2c2nnc([C@H]3[C@@H]4CNC[C@@H]43)o2)N1OS(=O)(=O)O [Compound 740, (2S,5R)-2-(5-(3-azabicyclo[3.1.0]hexan-6-yl)-1,3,4-oxadiazol-2-yl)-7-oxo-1,6-diazabicyclo[3.2.1]octan-6-yl hydrogen sulfate]	more active than Avibactam
